ChEMBL document CHEMBL3885861, “Open TG-GATES”

Organism: Rattus norvegicus
Assay: Open TG-GATES - Regimen: Daily Repeat
Format: toxicity, organism-based, Sprague-Dawley
Parameters: regimen Daily Repeat, gender Male, age 6 weeks
Details: in vivo, iv, 0 mg/kg, route intravenous injection, dose level Control; for APTT / Bas / Eos / Fbg / Hb / Ht / Lym / MCH / MCHC / MCV / Mono / Neu / PT / Plat / RBC / Ret / WBC: tissue Blood; for KIDNEY_L / KIDNEY_R / KIDNEY_TOTAL: tissue Kidney; for LIVER: tissue Liver; for ALP / ALT / AST / BUN / CRE / Ca / Cl / DBIL / GLC / IP / K / LDH / Na / PL / RALB / TBIL / TC / TG / TP / gamma-GTP: tissue Plasma

CC(=O)OCC1=C(C(=O)O)N2C(=O)[C@@H](NC(=O)Cc3cccs3)[C@H]2SC1 [CEPHALOTHIN]
TERMINAL_BW (72 h, time 3 day): 230.4 g
APTT (72 h, time 3 day): 21.2 s
Bas (72 h, time 3 day): 0%
Eos (72 h, time 3 day): 0.8%
Fbg (72 h, time 3 day): 292.4 mg/dL
Hb (72 h, time 3 day): 13.4 g/dL
Ht (72 h, time 3 day): 38.5%
Lym (72 h, time 3 day): 82%
MCH (72 h, time 3 day): 21.2 pg
MCHC (72 h, time 3 day): 34.9%
MCV (72 h, time 3 day): 60.8 fL
Mono (72 h, time 3 day): 3.4%
Neu (72 h, time 3 day): 13%
PT (72 h, time 3 day): 16.1 s
Plat (72 h, time 3 day): 120.3 x10_4/uL
RBC (72 h, time 3 day): 633 x10_4/ul
Ret (72 h, time 3 day): 6.8%
WBC (72 h, time 3 day): 100.4 x10_2/uL
KIDNEY_L (72 h, time 3 day): 1 g
KIDNEY_R (72 h, time 3 day): 1 g
KIDNEY_TOTAL (72 h, time 3 day): 2 g
LIVER (72 h, time 3 day): 10.5 g
ALP (72 h, time 3 day): 1655.6 IU/L
ALT (72 h, time 3 day): 38.8 IU/L
AST (72 h, time 3 day): 69.2 IU/L
BUN (72 h, time 3 day): 18 mg/dL
CRE (72 h, time 3 day): 0.2 mg/dL
Ca (72 h, time 3 day): 10.8 mg/dL
Cl (72 h, time 3 day): 105.4 meq/L
DBIL (72 h, time 3 day): 0 mg/dL
GLC (72 h, time 3 day): 185.8 mg/dL
IP (72 h, time 3 day): 6.9 mg/dL
K (72 h, time 3 day): 4.6 meq/L
LDH (72 h, time 3 day): 153.6 IU/L
Na (72 h, time 3 day): 140.8 meq/L
PL (72 h, time 3 day): 147.2 mg/dL
RALB (72 h, time 3 day): 3 g/dL
TBIL (72 h, time 3 day): 0.002 mg/dL
TC (72 h, time 3 day): 79.2 mg/dL
TG (72 h, time 3 day): 108.4 mg/dL
TP (72 h, time 3 day): 5.3 g/dL
gamma-GTP (72 h, time 3 day): 1.6 IU/L
TERMINAL_BW ([…], time 7 day): 261.3 g
TERMINAL_BW ([…], time 14 day): 318.6 g
TERMINAL_BW ([…], time 28 day): 376.6 g
APTT ([…], time 7 day): 22.6 s
Bas ([…], time 7 day): 0%
Eos ([…], time 7 day): 0.8%
Fbg ([…], time 7 day): 303 mg/dL
Hb ([…], time 7 day): 13.2 g/dL
Ht ([…], time 7 day): 37.9%
Lym ([…], time 7 day): 78.6%
MCH ([…], time 7 day): 20.5 pg
MCHC ([…], time 7 day): 34.8%
MCV ([…], time 7 day): 59 fL
Mono ([…], time 7 day): 2.2%
Neu ([…], time 7 day): 17.8%
PT ([…], time 7 day): 17 s
Plat ([…], time 7 day): 139.9 x10_4/uL
RBC ([…], time 7 day): 642.6 x10_4/ul
Ret ([…], time 7 day): 5.7%
WBC ([…], time 7 day): 107.7 x10_2/uL
APTT ([…], time 14 day): 23.5 s
Bas ([…], time 14 day): 0%
Eos ([…], time 14 day): 1%
Fbg ([…], time 14 day): 268.2 mg/dL
Hb ([…], time 14 day): 14.2 g/dL
Ht ([…], time 14 day): 39.3%
Lym ([…], time 14 day): 76.4%
MCH ([…], time 14 day): 20.3 pg
MCHC ([…], time 14 day): 36.1%
MCV ([…], time 14 day): 56.2 fL
Mono ([…], time 14 day): 3%
Neu ([…], time 14 day): 18.8%
PT ([…], time 14 day): 16.1 s
Plat ([…], time 14 day): 126.1 x10_4/uL
RBC ([…], time 14 day): 698.6 x10_4/ul
Ret ([…], time 14 day): 4.8%
WBC ([…], time 14 day): 110.4 x10_2/uL
APTT ([…], time 28 day): 26.5 s
Bas ([…], time 28 day): 0%
Eos ([…], time 28 day): 1%
Fbg ([…], time 28 day): 291.4 mg/dL
Hb ([…], time 28 day): 15.6 g/dL
Ht ([…], time 28 day): 42.3%
Lym ([…], time 28 day): 83.6%
MCH ([…], time 28 day): 19.8 pg
MCHC ([…], time 28 day): 36.9%
MCV ([…], time 28 day): 53.6 fL
Mono ([…], time 28 day): 2.6%
Neu ([…], time 28 day): 12%
PT ([…], time 28 day): 16.3 s
Plat ([…], time 28 day): 108 x10_4/uL
RBC ([…], time 28 day): 789.2 x10_4/ul
Ret ([…], time 28 day): 2.4%
WBC ([…], time 28 day): 108.4 x10_2/uL
KIDNEY_L ([…], time 7 day): 1 g
KIDNEY_R ([…], time 7 day): 1.1 g
KIDNEY_TOTAL ([…], time 7 day): 2.1 g
KIDNEY_L ([…], time 14 day): 1.2 g
KIDNEY_R ([…], time 14 day): 1.3 g
KIDNEY_TOTAL ([…], time 14 day): 2.5 g
KIDNEY_L ([…], time 28 day): 1.3 g
KIDNEY_R ([…], time 28 day): 1.3 g
KIDNEY_TOTAL ([…], time 28 day): 2.5 g
LIVER ([…], time 7 day): 11.4 g
LIVER ([…], time 14 day): 12.9 g
LIVER ([…], time 28 day): 14.2 g
ALP ([…], time 7 day): 1413.8 IU/L
ALT ([…], time 7 day): 35 IU/L
AST ([…], time 7 day): 71.2 IU/L
BUN ([…], time 7 day): 18.6 mg/dL
CRE ([…], time 7 day): 0.2 mg/dL
Ca ([…], time 7 day): 10.7 mg/dL
Cl ([…], time 7 day): 107 meq/L
DBIL ([…], time 7 day): 0 mg/dL
GLC ([…], time 7 day): 182 mg/dL
IP ([…], time 7 day): 7 mg/dL
K ([…], time 7 day): 4.4 meq/L
LDH ([…], time 7 day): 177.6 IU/L
Na ([…], time 7 day): 142 meq/L
PL ([…], time 7 day): 121.8 mg/dL
RALB ([…], time 7 day): 2.9 g/dL
TBIL ([…], time 7 day): 0.004 mg/dL
TC ([…], time 7 day): 64.8 mg/dL
TG ([…], time 7 day): 87.6 mg/dL
TP ([…], time 7 day): 5.3 g/dL
gamma-GTP ([…], time 7 day): 1.8 IU/L
ALP ([…], time 14 day): 1425 IU/L
ALT ([…], time 14 day): 34.4 IU/L
AST ([…], time 14 day): 63.4 IU/L
BUN ([…], time 14 day): 16.8 mg/dL
CRE ([…], time 14 day): 0.2 mg/dL
Ca ([…], time 14 day): 10.9 mg/dL
Cl ([…], time 14 day): 104.4 meq/L
DBIL ([…], time 14 day): 0 mg/dL
GLC ([…], time 14 day): 185.8 mg/dL
IP ([…], time 14 day): 6.9 mg/dL
K ([…], time 14 day): 4.4 meq/L
LDH ([…], time 14 day): 119.2 IU/L
Na ([…], time 14 day): 141.4 meq/L
PL ([…], time 14 day): 138 mg/dL
RALB ([…], time 14 day): 3.1 g/dL
TBIL ([…], time 14 day): 0.01 mg/dL
TC ([…], time 14 day): 67.8 mg/dL
TG ([…], time 14 day): 96.8 mg/dL
TP ([…], time 14 day): 5.8 g/dL
gamma-GTP ([…], time 14 day): 3.2 IU/L
ALP ([…], time 28 day): 967 IU/L
ALT ([…], time 28 day): 31.8 IU/L
AST ([…], time 28 day): 64.2 IU/L
BUN ([…], time 28 day): 18.2 mg/dL
CRE ([…], time 28 day): 0.2 mg/dL
Ca ([…], time 28 day): 10.4 mg/dL
Cl ([…], time 28 day): 105.4 meq/L
DBIL ([…], time 28 day): 0 mg/dL
GLC ([…], time 28 day): 188.6 mg/dL
IP ([…], time 28 day): 5.9 mg/dL
K ([…], time 28 day): 4.3 meq/L
LDH ([…], time 28 day): 181.6 IU/L
Na ([…], time 28 day): 142.6 meq/L
PL ([…], time 28 day): 134.8 mg/dL
RALB ([…], time 28 day): 3.1 g/dL
TBIL ([…], time 28 day): 0.004 mg/dL
TC ([…], time 28 day): 64 mg/dL
TG ([…], time 28 day): 131 mg/dL
TP ([…], time 28 day): 6.1 g/dL
gamma-GTP ([…], time 28 day): 1 IU/L
